A short description of data set [1]: Compound toxicity, ATPLite (CC50). As to conditions: human, HepAD38 cells. (In general: Cellular ATP, detected with luciferase, serves as a proxy for viable cell number.)
Protocol: (§1) Briefly, cells are passaged upon attaining confluency in DMEM/F12 media in the presence of 10% FBS, Penn/Strep, 250 μg/mL G418, and 1 μg/ml tetracycline. Novel compounds are screened by first washing cells three times with PBS to remove tetracycline, and plating in 96 well plates at 35,000 cells/well. Compounds dissolved in DMSO are then diluted 1:200 into wells containing cells. Five days after compound addition, material is harvested for analysis.
Compound toxicity is evaluated by seeding cells at 15,000 cells/well and treating with compound as described above.
For a further data set, the system named is hepatitis B virus (HBV). The data set is described as follows: HepAD38 antiviral assay (viral product accumulation, EC50). As to conditions: HePAD38, 120 h, read-out: HepAD38 EC50.

One may read the CC50 as the concentration that lowers cell viability or growth by half. The EC50 is the concentration at which the effect is half-maximal.

Protocol for hepatitis B virus (HBV): as §1
On harvest day, virion DNA is obtained by lysing with Sidestep Lysis and Stabilization Buffer and then quantified via quantitative real time PCR. Commercially available ELISA kits are used to quantitate the viral proteins HBsAg (Alpco) or HbeAg (US Biological) by following the manufacturer's recommended protocol after diluting samples to match the linear range of their respective assays.

Turning to `Cn1nc(NC(=O)N2CCC(O)CC2)cc1C(=O)Nc1ccc(F)cc1Cl` [Example 59], the CC50 at 3 days in data set [1] is > 30 µM. Moreover, the EC50 with hepatitis B virus (HBV) is > 10 µM.
The like results for `Cn1nc(NC(=O)N2CCC(O)CC2)cc1C(=O)Nc1cc(F)c(F)c(Cl)c1` [Example 60] were, in that order, < 10 µM and 1 to 10 µM.
On the same counts, the results for `Cn1nc(NC(=O)N2CCC(O)CC2)cc1C(=O)Nc1ccccn1` [Example 61] are > 30 µM and > 10 µM.
Regarding `Cn1nc(NC(=O)N2CCC(O)CC2)cc1C(=O)Nc1ccc(O)cc1` [Example 62], the CC50 at 3 days in data set [1] was > 30 µM. In addition, the EC50 in the data set with hepatitis B virus (HBV) was > 10 µM.
Turning to `Cn1nc(NC(=O)N2CCC(O)CC2)cc1C(=O)Nc1cccc(O)c1` [Example 63], in data set [1], the CC50 at 3 days was > 30 µM. For the same compound, the EC50 in the data set on hepatitis B virus (HBV) is > 10 µM.
On the same counts, the results for `COc1ccc(NC(=O)c2cc(NC(=O)N3CCC(O)CC3)nn2C)cc1` [Example 64] are > 30 µM and > 10 µM.
On the same counts, the results for `COc1cccc(NC(=O)c2cc(NC(=O)N3CCC(O)CC3)nn2C)c1` [Example 65] are > 30 µM and > 10 µM.
On the same counts, the results for `CCc1ccc(NC(=O)c2cc(NC(=O)N3CCC(O)CC3)nn2C)cc1` [Example 66] are > 30 µM and > 10 µM.
As for `CC(C)c1ccc(NC(=O)c2cc(NC(=O)N3CCC(O)CC3)nn2C)cc1` [Example 67], in data set [1], the CC50 at 3 days was > 30 µM. In addition, the EC50 in the data set on hepatitis B virus (HBV) is > 10 µM.
The like results for `CC(C)c1cccc(NC(=O)c2cc(NC(=O)N3CCC(O)CC3)nn2C)c1` [Example 68] were, in that order, > 10 µM and > 10 µM.
Turning to `Cn1nc(NC(=O)N2CCC(O)CC2)cc1C(=O)Nc1ccc(C(C)(C)C)cc1` [Example 69], the CC50 at 3 days in data set [1] is > 30 µM. Further, the EC50 in the data set on hepatitis B virus (HBV) was > 10 µM.
The like results for `Cn1nc(NC(=O)N2CCC(O)CC2)cc1C(=O)Nc1ccc(-c2ccccc2)cc1` [Example 70] were, in that order, > 30 µM and > 10 µM.
Turning to `O=C(Nc1cc(F)c(F)c(F)c1)c1ccc(Cl)c(NS(=O)(=O)N2CCC(O)CC2)c1` [Example 71], in data set [1], the CC50 at 3 days was > 30 µM. In addition, the EC50 in the data set with hepatitis B virus (HBV) was in the range of 1 to 10 µM.
On the same counts, the results for `COC(=O)c1ccc(NC(=O)c2cc(NC(=O)N3CCC(O)CC3)nn2C)cc1` [Example 72] are > 30 µM and > 10 µM.
On the same counts, the results for `COC(=O)c1cccc(NC(=O)c2cc(NC(=O)N3CCC(O)CC3)nn2C)c1` [Example 73] are > 30 µM and > 10 µM.
Turning to `Cn1nc(NC(=O)N2CCC(O)CC2)cc1C(=O)Nc1ccc(C(=O)O)cc1` [Example 74], in data set [1], the half-maximal cytotoxic concentration (CC50) at 3 days was > 30 µM. Besides, in the data set with hepatitis B virus (HBV), the EC50 was > 10 µM.

These data come from US10738035B2, “Hepatitis B antiviral agents” (Enanta Pharmaceuticals, Inc., priority 2015, dated 2020).
